Test results published in patent publication US10555932B2, “Method of restoring analgesic efficacy of alpha2-adrenoceptor agonists in neuropathic pain treatment” (KOREA INSTITUTE OF SCIENCE AND TECHNOLOGY, priority 2016, dated 2020).
Structures can show the parent of a compound that is named as a salt.

Assays:
[1] = system: mice having neuropathic pain induced by a spared nerve injury (SNI); conditions: for analgesic efficacy at the chronic stage of the neuropathic pain / analgesic efficacy at the earlier stage of the neuropathic pain: agonist alone; for analgesic efficacy upon co-administration of CCG 50014 (RGS4 inhibitor): at 14, 28, or even 56 days after SNI, CCG50014 intrathecally 5 minutes before agonist (FIGS. 3 and 4); for analgesic effect of 1 nmol at 14 days after SNI / analgesic effect at 28 days after SNI / analgesic effect at 56 days after SNI / analgesic effect at 14 days after SNI / higher dose needed at 56 days after SNI for analgesic effect similar to that at 14 days after SNI / neuropathic pain induced by SNI (withdrawal threshold): mouse; for analgesic effect of 1 nmol at 14 days after SNI / analgesic effect at 28 days after SNI / analgesic effect at 56 days after SNI / analgesic effect at 14 days after SNI / higher dose needed at 56 days after SNI for analgesic effect similar to that at 14 days after SNI: intrathecal; for analgesic effect of 1 nmol at 14 days after SNI: alone (FIGS. 5 and 6); for analgesic effect at 28 days after SNI / analgesic effect at 56 days after SNI / analgesic effect at 14 days after SNI / higher dose needed at 56 days after SNI for analgesic effect similar to that at 14 days after SNI: alone; for analgesic effect at 14 days after SNI: as doses increased; for higher dose needed at 56 days after SNI for analgesic effect similar to that at 14 days after SNI: relative to 1 nmol at 14 days; for neuropathic pain induced by SNI (withdrawal threshold): single intrathecal injection, agonist alone (FIGS. 1 and 2)
Text: To prepare neuralgia-induced mouse models, mice having a genetic background of 129S4/SvJae×C57BL/6J were used. According to a modification of the method described in the related art, a spared nerve injury (SNI) of sciatic nerve was induced in the mice.
Briefly, the mice were anesthetized with 3% isoflurane in a mixture of N2O/O2 gas. At the right hindlimb, incision was made at a mid-thigh level, and peripheral branches (sural, common peroneal, and tibial nerves) of the sciatic nerve were exposed. Both tibial and common peroneal nerves were tightly ligated with 8.0 silk thread together, and a 1-2 mm section of the two nerves was removed. The sural nerve was carefully preserved by avoiding any nerve stretch or nerve contact with surgical tools. Muscle and skin were closed in two distinct layers with chromic catgut 6.0 and silk 6.0 suture, respectively. During recovery, animals were housed in clear plastic cages with a thick layer of sawdust bedding.
Clonidine (2-[(2,6-dichlorophenyl)amino-2-imidazoleine hydrochloride, alpha2AR agonist) was purchased from Sigma (St. Louis, Mo., USA). CCG50014 was diluted in 12% dimethyl sulfoxide (DMSO) in saline.
Each drug was administered by intrathecal injection based on the technique developed by Hylden and Wilcox. […] drugs were dissolved in 5 μl of vehicle. Briefly, for mouse intrathecal injections, a 30-gauge needle (length: 0.5 inch) connected to a 50 μl Hamilton syringe was inserted into the subarachnoid space between the lumbar vertebrae L5 and L6. A flick of the mouse tail provided a reliable indicator that the needle had penetrated the dura meter. The syringe was held in position for a few seconds after the injection of 5 μl/mouse.
To evaluate a degree of pain alleviation in each of the neuralgic mice, a degree of pain responses to mechanical stimuli was measured by measuring mechanical threshold based on the method described in the related art. In detail, mechanical withdrawal thresholds were determined for all mice at day 0 prior to neuropathic surgery in order to obtain normal baseline values of withdrawal threshold to mechanical stimuli. For 56 days post-SNI surgery, all experimental animals were behaviorally tested to confirm the development of mechanical allodynia. […] The test was performed using an ascending series of von Frey filaments (North Coast Medical, Morgan Hill, Calif.). Mice were placed in an acrylic cylinder (6.5 cm in diameter and 17 cm in height) on an elevated metal mesh grid and allowed to acclimate for 30 minutes before testing. Each monofilament (0.008 g, 0.02 g, 0.07 g, 0.16 g, 0.4 g, and 0.6 g) was applied 6 times in ascending order to the midplantar region of each hind paw of mouse. The monofilament that produced a paw withdrawal, flinch, or lick in 3 of 6 applications was defined as the 50% paw withdrawal threshold. The behavioral investigator was blinded to the treatment of animals during the experiments.
(§1) Results of each of the experiments above are expressed as means±SEM unless otherwise stated. Data analysis and statistical comparisons were performed using GraphPad Prism version 5.0 (GraphPad Software, San Diego, Calif.). Comparison between two groups was made using the Student's t-test. For multiple comparisons, ANOVA followed by post hoc Tukey test was performed. Differences with P<0.05 were considered significant.

[2] = system: systolic blood pressure (SBP); conditions: mouse
Protocol: To evaluate the induction of low blood pressure, systolic blood pressure (SBP) was measured using a non-invasive computerized tail-cuff system as previously described in the art (PowerLab system, ADI Instrument Pry Ltd., Chain Hills, NSW, Australia). Briefly, animals were acclimated for 30 minutes in a quiet test room prior to obtaining cardiovascular measurements. At the end of the 1 hour period, the SBP was measured. This experiment was repeated 3 times and the mean value for each animal was recorded. […] All cardiovascular measurements were obtained between 1 pm to 3 pm in order to avoid changes due to normal circadian rhythms.
as §1, with “Test results” for “Results of each of the experiments above”

motion performance = conditions: mouse
Protocol: To evaluate degradation of motion performance capability as one of side effects caused by the low blood pressure, rotarod test was performed on each of the mice administered with clonidine or the RGS4 inhibitor. […] All mice were tested 24 hours before the actual rotarod test, and mice that were able to remain on the rod for at least 120 seconds were included in the experiment. 30 minutes after clonidine injection, each animal was subsequently tested on the rotarod over 2-minutes period and their performance time on the bar (in seconds) was measured. The test was repeated 3 times and the mean value for each animal was recorded.
as §1, with “Test results” for “Results of each of the experiments above”

[3] = cited from earlier work

Compound | analgesic efficacy upon co-administration of dynasore ([1]; mouse SNI, 56th day after SNI, dynasore intrathecally 5 minutes before clonidine (FIG. 9)) | analgesic efficacy at the chronic stage of the neuropathic pain ([1]; mouse SNI) | analgesic efficacy at the earlier stage of the neuropathic pain ([1]; mouse SNI) | analgesic efficacy upon co-administration of CCG 50014 (RGS4 inhibitor) ([1]; mouse SNI) | analgesic effect of 1 nmol at 14 days after SNI [1] | analgesic effect at 28 days after SNI [1] | analgesic effect at 56 days after SNI [1] | analgesic effect at 14 days after SNI [1] | higher dose needed at 56 days after SNI for analgesic effect similar to that at 14 days after SNI [1] | neuropathic pain induced by SNI (withdrawal threshold) [1] | low blood pressure side effect ([2]; 1 nmol in combination with the RGS4 inhibitor (FIG. 7)) | blood pressure (SBP) change ([2]; clonidine 10 nmol alone (effective dose), 30 minutes after treatment (FIG. 7)) | decreased motor performance side effect (motion performance; 1 nmol in combination with the RGS4 inhibitor (FIG. 8)) | motor performance (rotarod) (motion performance; clonidine 10 nmol alone, 30 minutes after injection (FIG. 8)) | side effect ([3]; healthy adult male, concentration gradient from about 150 μg to about 450 μg) | side effects ([3]; human, 1 μg/kg intravenously with lidocaine) | harmful side effect ([3]; human, 5 μg/kg orally)
Clc1cccc(Cl)c1N=C1NCCN1 [clonidine, 2-[(2,6-dichlorophenyl)amino-2-imidazoleine hydrochloride] | restored | lost the analgesic efficacy | exhibited the analgesic efficacy | maintained | significant analgesic effect | decreased | completely disappeared | potent analgesic effect | 10 fold | alleviated | no side effects | significant symptoms of low blood pressure | no side effects | rapidly decreased motor performance | no side effect | no statistically significant side effects | no harmful side effect
Cc1cccc([C@H](C)c2c[nH]cn2)c1C.Cl [dexmedetomidine, 4-[(1S)-1-(2,3-dimethylphenyl)ethyl]-1H-imidazole hydrochloride] | – | lost the analgesic efficacy | exhibited the analgesic efficacy | maintained | significant analgesic effect | decreased | completely disappeared | potent analgesic effect | 3 fold | alleviated | – | – | – | – | – | – | –
